The nature of series [1]: Toxicity of AMPs (Table 3, method not described). Also on record: unit not given here. The following applies: two values per AMP.
The subject of series [2] is E. coli. The experiment in a line: MIC of AMPs against E. coli. The format is cell-based, Escherichia coli. The following applies: Table 3; two values per AMP.
The subject of series [3] is S. aureus. Briefly: Exponential phase OD600 AMP killing assay on S. aureus. In kind it is cell-based, Staphylococcus aureus. The following applies: concentration not singled out (192 and 640 μg/mL tested). As to the method: (§1) 1. Inoculate the appropriate host strain in LB medium with the appropriate selective marker and incubate with shaking at 37° C. overnight. 2. Re-dilute the culture 1:5000 into LB with the appropriate selective marker and grow at 300 rpm and 37° C. to an OD600 between 0.2 and 0.4.3. Add the appropriate amount of AMP or bacteriophage to the wells, running at least duplicate samples, preferably triplicates, and always carrying a no treatment control to control for phage contamination. 4. Sample points every 5 minutes using an automated 96-well assay plate capable heated and shaking plate reader.
(§2) The inventors tested a panel of AMPs, shown in Table 3 to assess which AMP has the greatest bacteriocidality against both E. coli and S. aureus. Cultures were grown to an optical density measured at 600 nm between 0.3-0.6 and then the AMPs were added in the respective concentrations. The decrease in OD600 is assessed as the killing of bacterial cells by the AMP, if the OD600 drops, other results cannot be inferred, as the information gained is from the OD600 is limited. The abbreviation SA denotes tests on Staphylococcus aureus, whereas EC denotes Escherichia coli bacteria. Experiments were run in duplicate. The nomenclature of these graphs follows the pattern: Strain.AMP.Concentration(μg/mL).replicate #(1 or 2). […]

In series [4] the test system is E. coli. Briefly: Exponential phase OD600 AMP killing assay on E. coli. The following applies: concentration not singled out (192 and 640 μg/mL tested). The format is cell-based, Escherichia coli. As for the experimental part:
as §1, §2

The test system of series [5] is S. aureus. Briefly: MIC of AMPs / enzyme against S. aureus. In kind it is cell-based, Staphylococcus aureus. The following applies: Table 3; two values per AMP.

The values that follow come from patent US10676721B2, “Bacteriophages expressing antimicrobial peptides and uses thereof” (priority 2009, dated 2020).

In series [1], “J589_A7: AMP, RLCRIVVIRVCR (SEQ ID NO: 10) (listed as Bos taurus)” gave a Toxicity of 256. Besides, the MIC E. coli in series [2] worked out at 64 µg/mL. Also, in series [3], the “bacteriocidal / bacteriostatic action on S. aureus (OD600)” value is recorded as “no effects”. Moreover, the “bacteriocidal / bacteriostatic action on E. coli (OD600)” value in series [4] is reported as “intermediate bacteriocidal action”. In series [5], the MIC S. aureus amounted to 64 µg/mL.
